# In publication PMC6472001, “Phenolic Compounds from Humulus lupulus as Natural Antimicrobial Products: New Weapons in the Fight against Methicillin Resistant Staphylococcus aureus, Leishmania mexicana and Trypanosoma brucei Strains” (Molecules, 2019):
# Legend:
# Format in all cases: cell-based
# [1] = test system: Acinetobacter baumannii 9010; experiment: First screening, agar dilution MIC
# Method: (§1) Clinical bacterial isolates from human samples collected in Lille (France) and some collection strains were used. The first screening step on pathogenic bacteria was carried out with crude hydro-alcoholic extracts of different hop parts (Table 1). The second screening was performed using sub-extracts of cones on Gram-positive bacteria, including methicillin-sensitive Staphylococcus aureus (MSSA) and methicillin-resistant Staphylococcus aureus […] (Table 2). These tests were carried out on Petri dishes, Mueller-Hinton Agar (MHA) (Oxoid, UK) was mixed with the plant extract solution in MeOH at 5% (solvent control: 5% MeOH). Final extract concentrations in Petri dishes ranged from 1250 to 4.9 µg/mL. A multi-headed inoculator allowed spotting bacterial strains at 10^5 CFU/mL in cysteinated Ringer (CR) solution (Merck®, France). Minimal Inhibitory Concentrations (MICs) were visually determined after 24 h of incubation at 37 °C.
# [2] = test system: Acinetobacter baumannii 9011; experiment: First screening, agar dilution MIC
# Method: as §1
# [3] = test system: Citrobacter freundii 11041; experiment: First screening, agar dilution MIC
# Method: as §1
# [4] = test system: Citrobacter freundii 11042; experiment: First screening, agar dilution MIC
# Method: as §1
# [5] = test system: Corynebacterium T25-17; experiment: First screening, agar dilution MIC
# Method: as §1
# [6] = test system: Enterobacter cloacae 11050; experiment: First screening, agar dilution MIC
# Method: as §1
# [7] = test system: Enterobacter cloacae 11051; experiment: First screening, agar dilution MIC
# Method: as §1
# [8] = test system: Enterobacter cloacae 11053; experiment: First screening, agar dilution MIC
# Method: as §1
# [9] = test system: Enterococcus faecalis C159-6; experiment: First screening, agar dilution MIC
# Method: as §1
# [10] = test system: Enterococcus sp. 8153; experiment: First screening, agar dilution MIC
# Method: as §1
# [11] = test system: Escherichia coli 8138; experiment: First screening, agar dilution MIC
# Method: as §1
# [12] = test system: Escherichia coli 8157; experiment: First screening, agar dilution MIC
# Method: as §1
# [13] = test system: Escherichia coli ATCC 25922; experiment: First screening, agar dilution MIC
# Method: as §1
# [14] = test system: Klebsiella pneumoniae 11016; experiment: First screening, agar dilution MIC
# Method: as §1
# [15] = test system: Klebsiella pneumoniae 11017; experiment: First screening, agar dilution MIC
# Method: as §1
# [16] = test system: Mycobacterium smegmatis 5003; experiment: First screening, agar dilution MIC
# Method: as §1
# [17] = test system: Proteus mirabilis 11060; experiment: First screening, agar dilution MIC
# Method: as §1
# [18] = test system: Providencia stuartii 11038; experiment: First screening, agar dilution MIC
# Method: as §1
# [19] = test system: Pseudomonas aeruginosa 8131; experiment: First screening, agar dilution MIC
# Method: as §1
# [20] = test system: Pseudomonas aeruginosa ATCC 27583; experiment: First screening, agar dilution MIC
# Method: as §1
# [21] = test system: Salmonella sp. 11033; experiment: First screening, agar dilution MIC
# Method: as §1
# [22] = test system: Serratia marcescens 11056; experiment: First screening, agar dilution MIC
# Method: as §1
# [23] = test system: Serratia marcescens 11057; experiment: First screening, agar dilution MIC
# Method: as §1
# [24] = test system: Staphylococcus aureus 8146; experiment: First screening, agar dilution MIC
# Method: as §1
# [25] = test system: Staphylococcus aureus 8147; experiment: First screening, agar dilution MIC
# Method: as §1
# [26] = test system: Staphylococcus epidermidis 10282; experiment: First screening, agar dilution MIC
# Method: as §1
# [27] = test system: Staphylococcus epidermidis 5001; experiment: First screening, agar dilution MIC
# Method: as §1
# [28] = test system: Staphylococcus lugdunensis T26A3; experiment: First screening, agar dilution MIC
# Method: as §1
# [29] = test system: Staphylococcus warneri T12A12; experiment: First screening, agar dilution MIC
# Method: as §1
# [30] = test system: Stenotrophomonas maltophilia; experiment: First screening, agar dilution MIC
# Method: as §1
# [31] = test system: Streptococcus agalactiae T25-7; experiment: First screening, agar dilution MIC
# Method: as §1
# [32] = test system: Streptococcus agalactiae T53C2; experiment: First screening, agar dilution MIC
# Method: as §1
# [33] = test system: Streptococcus dysgalactiae T46C14; experiment: First screening, agar dilution MIC
# Method: as §1
# [34] = test system: Corynebacterium T25-17; experiment: Second screening, agar dilution MIC; details: Table 2
# Method: as §1
# [35] = test system: Enterococcus faecalis T26-B7; experiment: Second screening, agar dilution MIC
# Method: as §1
# [36] = test system: Enterococcus faecalis T34-2; experiment: Second screening, agar dilution MIC
# Method: as §1
# [37] = test system: Enterococcus faecalis T37A4; experiment: Second screening, agar dilution MIC
# Method: as §1
# [38] = test system: Enterococcus faecalis T39-C11; experiment: Second screening, agar dilution MIC
# Method: as §1
# [39] = test system: Staphylococcus aureus 8147; experiment: Second screening, agar dilution MIC; details: Table 2
# Method: as §1
# [40] = test system: Staphylococcus aureus CIP 224; experiment: Second screening, agar dilution MIC
# Method: as §1
# [41] = test system: Staphylococcus aureus T1.1; experiment: Second screening, agar dilution MIC
# Method: as §1
# [42] = test system: Staphylococcus aureus T25.10; experiment: Second screening, agar dilution MIC
# Method: as §1
# [43] = test system: Staphylococcus aureus T25.3; experiment: Second screening, agar dilution MIC
# Method: as §1
# [44] = test system: Staphylococcus aureus T25.9; experiment: Second screening, agar dilution MIC
# Method: as §1
# [45] = test system: Staphylococcus aureus T26A4; experiment: Second screening, agar dilution MIC
# Method: as §1
# [46] = test system: Staphylococcus aureus T28.1; experiment: Second screening, agar dilution MIC
# Method: as §1
# [47] = test system: Staphylococcus aureus T36B1; experiment: Second screening, agar dilution MIC
# Method: as §1
# [48] = test system: Staphylococcus aureus T47A12; experiment: Second screening, agar dilution MIC
# Method: as §1
# [49] = test system: Staphylococcus aureus T6.7; experiment: Second screening, agar dilution MIC
# Method: as §1
# [50] = test system: Staphylococcus epidermidis 5001; experiment: Second screening, agar dilution MIC; details: Table 2
# Method: as §1
# [51] = test system: Staphylococcus lugdunensis T26A3; experiment: Second screening, agar dilution MIC; details: Table 2
# Method: as §1
# [52] = test system: Staphylococcus pettenkoferi T3.3; experiment: Second screening, agar dilution MIC
# Method: as §1
# [53] = test system: Staphylococcus saprophyticus 08237; experiment: Second screening, agar dilution MIC
# Method: as §1
# [54] = test system: Streptococcus agalactiae 13225; experiment: Second screening, agar dilution MIC
# Method: as §1
# [55] = test system: Streptococcus agalactiae 13226; experiment: Second screening, agar dilution MIC
# Method: as §1
# [56] = test system: Streptococcus agalactiae T25.7; experiment: Second screening, agar dilution MIC
# Method: as §1
# [57] = test system: Streptococcus agalactiae T38.2; experiment: Second screening, agar dilution MIC
# Method: as §1
# [58] = test system: Streptococcus agalactiae T40A2; experiment: Second screening, agar dilution MIC
# Method: as §1
structure (smiles),measurement,setting,value
"CNC(C)C1CCC(N)C(OC2C(N)CC(N)C(OC3OCC(C)(O)C(NC)C3O)C2O)O1 (stereo not shown) [GEN, Gentamicin]",Susceptibility to GEN,[1],S (Gentamicin (GEN) S ≤ 4)
same,Susceptibility to GEN,[2],R (R > 8)
same,Susceptibility to GEN,[3],S (Gentamicin (GEN) S ≤ 4)
same,Susceptibility to GEN,[4],S (Gentamicin (GEN) S ≤ 4)
same,Susceptibility to GEN,[5],S (Gentamicin (GEN) S ≤ 4)
same,Susceptibility to GEN,[6],S (Gentamicin (GEN) S ≤ 4)
same,Susceptibility to GEN,[7],R (R > 8)
same,Susceptibility to GEN,[8],S (Gentamicin (GEN) S ≤ 4)
same,Susceptibility to GEN,[9],R (R > 8)
same,Susceptibility to GEN,[10],R (R > 8)
same,Susceptibility to GEN,[11],S (Gentamicin (GEN) S ≤ 4)
same,Susceptibility to GEN,[12],S (Gentamicin (GEN) S ≤ 4)
same,Susceptibility to GEN,[13],S (Gentamicin (GEN) S ≤ 4)
same,Susceptibility to GEN,[14],S (Gentamicin (GEN) S ≤ 4)
same,Susceptibility to GEN,[15],S (Gentamicin (GEN) S ≤ 4)
same,Susceptibility to GEN,[16],S (Gentamicin (GEN) S ≤ 4)
same,Susceptibility to GEN,[17],S (Gentamicin (GEN) S ≤ 4)
same,Susceptibility to GEN,[18],S (Gentamicin (GEN) S ≤ 4)
same,Susceptibility to GEN,[19],S (Gentamicin (GEN) S ≤ 4)
same,Susceptibility to GEN,[20],R (R > 8)
same,Susceptibility to GEN,[21],S (Gentamicin (GEN) S ≤ 4)
same,Susceptibility to GEN,[22],S (Gentamicin (GEN) S ≤ 4)
same,Susceptibility to GEN,[23],R (R > 8)
same,Susceptibility to GEN,[24],S (Gentamicin (GEN) S ≤ 4)
same,Susceptibility to GEN,[25],S (Gentamicin (GEN) S ≤ 4)
same,Susceptibility to GEN,[26],S (Gentamicin (GEN) S ≤ 4)
same,Susceptibility to GEN,[27],S (Gentamicin (GEN) S ≤ 4)
same,Susceptibility to GEN,[28],S (Gentamicin (GEN) S ≤ 4)
same,Susceptibility to GEN,[29],S (Gentamicin (GEN) S ≤ 4)
same,Susceptibility to GEN,[30],S (Gentamicin (GEN) S ≤ 4)
same,Susceptibility to GEN,[31],R (R > 8)
same,Susceptibility to GEN,[32],S (Gentamicin (GEN) S ≤ 4)
same,Susceptibility to GEN,[33],S (Gentamicin (GEN) S ≤ 4)
same,Susceptibility to GEN,[34],S (Gentamicin (GEN) S ≤ 4)
same,Susceptibility to GEN,[35],R (R > 8)
same,Susceptibility to GEN,[36],S (Gentamicin (GEN) S ≤ 4)
same,Susceptibility to GEN,[37],R (R > 8)
same,Susceptibility to GEN,[38],S (Gentamicin (GEN) S ≤ 4)
same,Susceptibility to GEN,[39],S (Gentamicin (GEN) S ≤ 4)
same,Susceptibility to GEN,[40],S (Gentamicin (GEN) S ≤ 4)
same,Susceptibility to GEN,[41],S (Gentamicin (GEN) S ≤ 4)
same,Susceptibility to GEN,[42],S (Gentamicin (GEN) S ≤ 4)
same,Susceptibility to GEN,[43],S (Gentamicin (GEN) S ≤ 4)
same,Susceptibility to GEN,[44],S (Gentamicin (GEN) S ≤ 4)
same,Susceptibility to GEN,[45],S (Gentamicin (GEN) S ≤ 4)
same,Susceptibility to GEN,[46],S (Gentamicin (GEN) S ≤ 4)
same,Susceptibility to GEN,[47],S (Gentamicin (GEN) S ≤ 4)
same,Susceptibility to GEN,[48],S (Gentamicin (GEN) S ≤ 4)
same,Susceptibility to GEN,[49],S (Gentamicin (GEN) S ≤ 4)
same,Susceptibility to GEN,[50],S (Gentamicin (GEN) S ≤ 4)
same,Susceptibility to GEN,[51],S (Gentamicin (GEN) S ≤ 4)
same,Susceptibility to GEN,[52],S (Gentamicin (GEN) S ≤ 4)
same,Susceptibility to GEN,[53],S (Gentamicin (GEN) S ≤ 4)
same,Susceptibility to GEN,[54],S (Gentamicin (GEN) S ≤ 4)
same,Susceptibility to GEN,[55],S (Gentamicin (GEN) S ≤ 4)
same,Susceptibility to GEN,[56],I
same,Susceptibility to GEN,[57],S (Gentamicin (GEN) S ≤ 4)
same,Susceptibility to GEN,[58],S (Gentamicin (GEN) S ≤ 4)
